Laboratory results from patent US20020137929A1, “1 - (3-heterocyclylphenyl) isothiourea, -isourea, -guanidine and -amidine herbicidal agents” (Intellectual Property Department, BASF Aktiengesellschaft, priority 1998, published 2002).

Assays:
[1] = system: IPOSS (Morningglory Spp.); assay: Postemergence herbicidal evaluation; type: in vivo, Ipomoea Spp.
Outline: (§1)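 ~2-wk seedlings; postemergence spray, 40 psi; vehicle 1:1 acetone:water + 0.5% Tween 20; rate ≈0.0156–0.500 kg/ha; greenhouse hold; scored 4–5 wk after treatment, 0–9 scale vs control; repeat tests averaged.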

[2] = system: GLXMA (Soybean); assay: Postemergence herbicidal evaluation; type: in vivo, Glycine max
Experimental: In the tests, seedling plants are grown in jiffy flats for about two weeks. The test compounds are dispersed in 50/50 acetone/water mixtures containing 0.5% TWEEN®20, a polyoxyethylene sorbitan monolaurate surfactant of Atlas Chemical Industries, in sufficient quantities to provide the equivalent of about 0.0156 kg to 0.500 kg per hectare of active compound when applied to the plants through a spray nozzle operating at 40 psi for a predetermined time. After spraying, the plants are placed on greenhouse benches and are cared for in accordance with conventional greenhouse procedures. From four to five weeks after treatment, the seedling plants are examined and rated according to the rating system set forth below. Where more than one test is involved for a given compound, the data are averaged.
Plant species employed in these evaluations are reported by header abbreviation, common name and scientific name.
(§2) Results of herbicide evaluation are expressed on a rating scale (0-9). The scale is based upon a visual observation of plant stand, vigor, malformation, size, chlorosis and overall plant appearance as compared with a control.

[3] = system: ZEAMX (Corn, Field); assay: Postemergence herbicidal evaluation; type: in vivo, Zea mays; conditions: postemergence
Outline: as §1

[4] = system: ABUTH (Velvetleaf); assay: Preemergence herbicidal evaluation; type: in vivo, Abutilon theophrasti; conditions: rated 4-5 weeks after treatment
Outline: (§3)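 Each species is sown separately in potting soil over roughly an inch of soil before any emergence. The soil surface then receives an aqueous acetone spray delivering about 0.0156 to 0.500 kg/ha of compound. After four to five weeks, injury is scored from 0 to 9 relative to a control.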

[5] = system: AMBEL (Ragweed, Common); assay: Preemergence herbicidal evaluation; type: in vivo, Ambrosia artemisifolia; conditions: rated 4-5 weeks after treatment
Outline: as §3

[6] = system: IPOSS (Morningglory Spp.); assay: Preemergence herbicidal evaluation; type: in vivo, Ipomoea Spp.; conditions: rated 4-5 weeks after treatment
Outline: as §3

[7] = system: GLXMA (Soybean); assay: Preemergence herbicidal evaluation; type: in vivo, Glycine max; conditions: rated 4-5 weeks after treatment
Source text: as §2
The preemergence herbicidal activity of the test compounds of the present invention is exemplified by the following tests in which the seeds of a variety of monocotyledonous and dicotyledonous plants are separately mixed with potting soil and planted on top of approximately one inch of soil in separate pint cups. After planting, the cups are sprayed with the selected aqueous acetone solution containing test compound in sufficient quantity to provide the equivalent of about 0.0156 to 0.500 kg per hectare of test compound per cup. The treated cups are then placed on greenhouse benches, watered and cared for in accordance with conventional greenhouse procedures. From four to five weeks after treatment, the tests are terminated and each cup is examined and rated according to the rating system provided in Example 37.
The compounds evaluated are reported by compound number given in Example 37.

[8] = system: ORYSAT (Rice, Tebonnet); assay: Rice tolerance to post-transplant applications, flooded paddy conditions (Table III); type: in vivo, Oryza sativa, (L.) Tebonnet; conditions: in vivo
Outline: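 Injury scored 0-9 by eye against untreated control, judging stand, vigor, malformation, size and chlorosis, three to four weeks after treatment. Compound in 50/50 aqueous/acetone, about 0.0313 to 0.500 kg/ha, was applied to paddy water (1.5 to 3 cm depth) three days after transplanting paired ten-day-old Tebonnet rice seedlings.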

[9] = system: MOOVA (Monochoria); assay: Postemergence weed control under flooded paddy conditions; type: in vivo, Monochoria vaginalis; conditions: postemergence weeds, 3-4 weeks after treatment
Outline: (§4)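 Herbicidal effect is judged by eye on a 0–9 scale versus control, 3–4 weeks after dosing. Dosing is into flood water kept 1.5–3 cm over the soil, at about 0.0313–0.500 kg/ha in aqueous/acetone 50/50 v/v, on 3–5 cm weeds and 1.5–2.5-leaf rice seedlings.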

[10] = system: SAGPY (Arrowhead (Pygmaea)); assay: as above; type: in vivo, Sagittaria pygmaea; conditions: postemergence weeds, 3-4 weeks after treatment
Outline: as §4

[11] = system: ORYSAT (Rice, Tebonnet); assay: Rice tolerance to post-transplant applications, flooded paddy conditions (Table IV); type: in vivo, Oryza sativa, (L.) Tebonnet; conditions: in vivo
Outline: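 Post-transplant paddy test in greenhouse: a.i. about 0.0313 to 0.500 kg/ha applied into the flood water. Plants are rated 0-9 for overall appearance relative to control three to four weeks on.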

[12] = system: GLXMAW (Soybean, Williams); assay: Preemergence herbicidal evaluation; type: in vivo, Glycine max, (L.) Merr. cv Williams; conditions: rated 4-5 weeks after treatment
Outline: as §3

`CCC1SC(=Nc2cc(N3C(=O)C4=C(CCCC4)C3=O)c(F)cc2Cl)N(C)C1=O` (stereo not drawn) [Compound 6, N-{4-chloro-5-[(5-ethyl-3-methyl-4-oxo-2-thiazolidinylidene)amino]-2-fluorophenyl}-1-cyclohexene-1,2-dicarboximide] gave an IPOSS herbicidal rating ([1]; rate 0.0157 kg/ha) of 0.0, an IPOSS herbicidal rating ([1]; rate 0.0313 kg/ha) of 0.0 and an IPOSS herbicidal rating ([1]; rate 0.0625 kg/ha) of 0.0. The IPOSS herbicidal rating ([1]; rate 0.1250 kg/ha) was 2.0, the IPOSS herbicidal rating ([1]; rate 0.2500 kg/ha) was 4.0 and the IPOSS herbicidal rating ([1]; rate 0.5000 kg/ha) was 9.0. The GLXMA herbicidal rating ([2]; rate 0.0157 kg/ha) was 3.0, the GLXMA herbicidal rating ([2]; rate 0.0313 kg/ha) was 3.0 and the GLXMA herbicidal rating ([2]; rate 0.0625 kg/ha) was 3.0. It also gave a GLXMA herbicidal rating ([2]; rate 0.1250 kg/ha) of 3.5, a GLXMA herbicidal rating ([2]; rate 0.2500 kg/ha) of 4.0 and a GLXMA herbicidal rating ([2]; rate 0.5000 kg/ha) of 4.0. The ZEAMX herbicidal rating ([3]; rate 0.0157 kg/ha) was 3.0, the ZEAMX herbicidal rating ([3]; rate 0.0313 kg/ha) was 3.5 and the ZEAMX herbicidal rating ([3]; rate 0.0625 kg/ha) was 3.5. It also gave a ZEAMX herbicidal rating ([3]; rate 0.1250 kg/ha) of 3.5, a ZEAMX herbicidal rating ([3]; rate 0.2500 kg/ha) of 3.5 and a ZEAMX herbicidal rating ([3]; rate 0.5000 kg/ha) of 4.0. For the same molecule, the “ABUTH preemergence herbicidal rating” value ([4]; rate 0.1250 kg/ha) was 0.0, the “ABUTH preemergence herbicidal rating” value ([4]; rate 0.2500 kg/ha) was 0.0 and the “ABUTH preemergence herbicidal rating” value ([4]; rate 0.5000 kg/ha) was 0.0. The “AMBEL preemergence herbicidal rating” value ([5]; rate 0.1250 kg/ha) was 0.0, the “AMBEL preemergence herbicidal rating” value ([5]; rate 0.2500 kg/ha) was 0.0 and the “AMBEL preemergence herbicidal rating” value ([5]; rate 0.5000 kg/ha) was 0.0. For the same molecule, the “IPOSS preemergence herbicidal rating” value ([6]; rate 0.1250 kg/ha) was 0.0, the “IPOSS preemergence herbicidal rating” value ([6]; rate 0.2500 kg/ha) was 0.0 and the “IPOSS preemergence herbicidal rating” value ([6]; rate 0.5000 kg/ha) was 0.0. For the same molecule, the “GLXMA preemergence herbicidal rating” value ([7]; rate 0.1250 kg/ha) was 0.0, the “GLXMA preemergence herbicidal rating” value ([7]; rate 0.2500 kg/ha) was 0.0 and the “GLXMA preemergence herbicidal rating” value ([7]; rate 0.5000 kg/ha) was 0.0. For the same molecule, the “Herbicidal rating ORYSAT (rice tolerance)” value (from here on “Herbicidal rating ORYSAT”) [8] was 0.0, the “Herbicidal rating MOOVA” value ([9]; rate 0.0313 kg/ha) was 1.0 and the “Herbicidal rating MOOVA” value ([9]; rate 0.0625 kg/ha) was 4.0. For the same molecule, the “Herbicidal rating MOOVA” value ([9]; rate 0.1250 kg/ha) was 4.0, the “Herbicidal rating MOOVA” value ([9]; rate 0.2500 kg/ha) was 4.5 and the “Herbicidal rating MOOVA” value ([9]; rate 0.5000 kg/ha) was 4.5. For the same molecule, the “Herbicidal rating SAGPY” value ([10]; rate 0.0313 kg/ha) was 0.0, the “Herbicidal rating SAGPY” value ([10]; rate 0.0625 kg/ha) was 0.0 and the “Herbicidal rating SAGPY” value ([10]; rate 0.1250 kg/ha) was 0.0. For the same molecule, the “Herbicidal rating SAGPY” value ([10]; rate 0.2500 kg/ha) was 0.0, the “Herbicidal rating SAGPY” value ([10]; rate 0.5000 kg/ha) was 0.0 and the “Herbicidal rating ORYSAT” value [11] was 0.0.
For `CCOC(=O)CN1C(=O)C(CC(=O)O)S/C1=N/c1cc(-n2c(=O)cc(C(F)(F)F)n(C)c2=O)c(F)cc1Cl` (stereo not drawn) [Compound 16], the ZEAMX herbicidal rating ([3]; rate 0.0157 kg/ha) was 8.0, the ZEAMX herbicidal rating ([3]; rate 0.0313 kg/ha) was 8.1 and the ZEAMX herbicidal rating ([3]; rate 0.0625 kg/ha) was 8.4. The ZEAMX herbicidal rating ([3]; rate 0.1250 kg/ha) was 8.7, the ZEAMX herbicidal rating ([3]; rate 0.2500 kg/ha) was 9.0 and the “ABUTH preemergence herbicidal rating” value ([4]; rate 0.0156 kg/ha) was 5.6. For the same molecule, the “ABUTH preemergence herbicidal rating” value ([4]; rate 0.0313 kg/ha) was 8.1, the “ABUTH preemergence herbicidal rating” value ([4]; rate 0.0625 kg/ha) was 8.8 and the “ABUTH preemergence herbicidal rating” value ([4]; rate 0.1250 kg/ha) was 8.9. For the same molecule, the “ABUTH preemergence herbicidal rating” value ([4]; rate 0.2500 kg/ha) was 9.0, the “ABUTH preemergence herbicidal rating” value ([4]; rate 0.5000 kg/ha) was 9.0 and the “AMBEL preemergence herbicidal rating” value ([5]; rate 0.0156 kg/ha) was 2.3. The “AMBEL preemergence herbicidal rating” value ([5]; rate 0.0313 kg/ha) was 4.5, the “AMBEL preemergence herbicidal rating” value ([5]; rate 0.0625 kg/ha) was 7.8 and the “AMBEL preemergence herbicidal rating” value ([5]; rate 0.1250 kg/ha) was 8.5. The “AMBEL preemergence herbicidal rating” value ([5]; rate 0.2500 kg/ha) was 8.9, the “AMBEL preemergence herbicidal rating” value ([5]; rate 0.5000 kg/ha) was 9.0 and the “GLXMAW preemergence herbicidal rating” value ([12]; rate 0.0156 kg/ha) was 0.5. The “GLXMAW preemergence herbicidal rating” value ([12]; rate 0.0313 kg/ha) was 0.7, the “GLXMAW preemergence herbicidal rating” value ([12]; rate 0.0625 kg/ha) was 1.5 and the “GLXMAW preemergence herbicidal rating” value ([12]; rate 0.1250 kg/ha) was 4.5. For the same molecule, the “GLXMAW preemergence herbicidal rating” value ([12]; rate 0.2500 kg/ha) was 7.7, the “GLXMAW preemergence herbicidal rating” value ([12]; rate 0.5000 kg/ha) was 9.0 and the “GLXMA preemergence herbicidal rating” value ([7]; rate 0.0156 kg/ha) was 0.0. For the same molecule, the “GLXMA preemergence herbicidal rating” value ([7]; rate 0.0313 kg/ha) was 0.0, the “GLXMA preemergence herbicidal rating” value ([7]; rate 0.0625 kg/ha) was 2.0 and the “GLXMA preemergence herbicidal rating” value ([7]; rate 0.1250 kg/ha) was 2.0. The “GLXMA preemergence herbicidal rating” value ([7]; rate 0.2500 kg/ha) was 3.5, the “GLXMA preemergence herbicidal rating” value ([7]; rate 0.5000 kg/ha) was 7.0 and the “Herbicidal rating ORYSAT” value [8] was 0.0. The “Herbicidal rating MOOVA” value ([9]; rate 0.0313 kg/ha) was 9.0, the “Herbicidal rating MOOVA” value ([9]; rate 0.0625 kg/ha) was 9.0 and the “Herbicidal rating MOOVA” value ([9]; rate 0.1250 kg/ha) was 9.0. For the same molecule, the “Herbicidal rating MOOVA” value ([9]; rate 0.2500 kg/ha) was 3.0, the “Herbicidal rating SAGPY” value ([10]; rate 0.0313 kg/ha) was 0.0 and the “Herbicidal rating SAGPY” value ([10]; rate 0.0625 kg/ha) was 0.0. The “Herbicidal rating SAGPY” value ([10]; rate 0.1250 kg/ha) was 0.0, the “Herbicidal rating SAGPY” value ([10]; rate 0.2500 kg/ha) was 0.0 and the “Herbicidal rating ORYSAT” value [11] was 0.0.
